Source: ChEMBL document CHEMBL4507268 (2021)

Tests used:
Conditions in all cases: Compound concentration 1.0 uM
[1] = target: T1, Activin receptor type-1B (Homo sapiens) (UniProt P36896)
T1 sequence (whole entry): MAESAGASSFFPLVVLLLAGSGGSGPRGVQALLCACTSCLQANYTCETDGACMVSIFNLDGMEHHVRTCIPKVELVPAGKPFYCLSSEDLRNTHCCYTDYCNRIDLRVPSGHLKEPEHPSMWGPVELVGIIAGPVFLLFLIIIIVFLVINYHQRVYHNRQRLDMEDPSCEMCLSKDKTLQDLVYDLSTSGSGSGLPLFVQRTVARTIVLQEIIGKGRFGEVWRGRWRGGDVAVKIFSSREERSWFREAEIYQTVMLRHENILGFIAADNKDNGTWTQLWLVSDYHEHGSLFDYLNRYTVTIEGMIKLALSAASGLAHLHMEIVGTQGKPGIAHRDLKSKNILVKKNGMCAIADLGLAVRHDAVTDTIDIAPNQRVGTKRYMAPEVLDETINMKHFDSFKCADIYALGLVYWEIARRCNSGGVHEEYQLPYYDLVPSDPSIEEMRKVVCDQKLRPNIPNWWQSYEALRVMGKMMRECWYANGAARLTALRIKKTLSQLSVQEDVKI

[2] = target: T2, Aurora kinase C (Homo sapiens) (UniProt Q9UQB9)
T2 sequence (whole entry): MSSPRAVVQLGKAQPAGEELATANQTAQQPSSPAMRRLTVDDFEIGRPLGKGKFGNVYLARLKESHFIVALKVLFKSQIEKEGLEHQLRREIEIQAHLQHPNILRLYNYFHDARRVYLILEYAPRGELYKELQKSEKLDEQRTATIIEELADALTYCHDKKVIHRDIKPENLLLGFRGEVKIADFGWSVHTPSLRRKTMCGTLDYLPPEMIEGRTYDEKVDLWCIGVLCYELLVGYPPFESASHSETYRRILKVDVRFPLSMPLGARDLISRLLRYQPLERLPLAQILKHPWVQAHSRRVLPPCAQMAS

[3] = target: Proto-oncogene tyrosine-protein kinase Src (Homo sapiens) (UniProt P12931)
Sequence of Proto-oncogene tyrosine-protein kinase Src (Homo sapiens) (P12931 2-536 limits assumed): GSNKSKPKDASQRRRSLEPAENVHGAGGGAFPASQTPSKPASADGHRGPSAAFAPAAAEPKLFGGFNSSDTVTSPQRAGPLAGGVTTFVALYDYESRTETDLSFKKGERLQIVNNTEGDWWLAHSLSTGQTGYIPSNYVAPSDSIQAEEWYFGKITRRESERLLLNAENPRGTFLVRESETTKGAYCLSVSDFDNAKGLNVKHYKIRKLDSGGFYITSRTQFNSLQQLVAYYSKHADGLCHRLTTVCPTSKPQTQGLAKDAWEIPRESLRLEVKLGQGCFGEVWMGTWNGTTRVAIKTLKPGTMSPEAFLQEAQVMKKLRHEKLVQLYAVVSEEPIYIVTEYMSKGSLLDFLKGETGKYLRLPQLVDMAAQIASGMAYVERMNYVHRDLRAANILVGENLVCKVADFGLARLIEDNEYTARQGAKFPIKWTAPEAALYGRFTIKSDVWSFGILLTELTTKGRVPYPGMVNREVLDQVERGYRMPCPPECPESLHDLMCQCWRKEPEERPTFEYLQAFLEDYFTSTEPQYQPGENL

[4] = target: T3, Tyrosine-protein kinase ITK/TSK (Homo sapiens) (UniProt Q08881)
T3 sequence (whole entry): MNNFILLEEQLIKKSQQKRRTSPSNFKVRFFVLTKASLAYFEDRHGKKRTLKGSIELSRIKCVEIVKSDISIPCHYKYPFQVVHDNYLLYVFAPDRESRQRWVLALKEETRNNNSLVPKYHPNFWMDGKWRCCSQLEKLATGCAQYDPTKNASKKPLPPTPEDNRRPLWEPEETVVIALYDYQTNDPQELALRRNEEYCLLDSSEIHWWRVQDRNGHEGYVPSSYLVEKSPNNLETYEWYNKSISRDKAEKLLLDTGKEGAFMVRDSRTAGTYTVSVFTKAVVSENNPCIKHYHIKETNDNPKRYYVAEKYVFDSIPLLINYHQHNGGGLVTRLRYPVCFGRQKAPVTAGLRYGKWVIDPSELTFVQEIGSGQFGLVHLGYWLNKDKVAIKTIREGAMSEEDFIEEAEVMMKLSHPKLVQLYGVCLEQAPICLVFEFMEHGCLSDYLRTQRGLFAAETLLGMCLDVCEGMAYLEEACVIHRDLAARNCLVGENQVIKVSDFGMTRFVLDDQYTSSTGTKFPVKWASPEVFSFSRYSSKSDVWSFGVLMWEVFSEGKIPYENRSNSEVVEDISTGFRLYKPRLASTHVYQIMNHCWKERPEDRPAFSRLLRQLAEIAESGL

[5] = target: Tyrosine-protein kinase Lyn (Homo sapiens) (UniProt P07948)
Sequence of Tyrosine-protein kinase Lyn (Homo sapiens) (P07948 2-512 limits assumed): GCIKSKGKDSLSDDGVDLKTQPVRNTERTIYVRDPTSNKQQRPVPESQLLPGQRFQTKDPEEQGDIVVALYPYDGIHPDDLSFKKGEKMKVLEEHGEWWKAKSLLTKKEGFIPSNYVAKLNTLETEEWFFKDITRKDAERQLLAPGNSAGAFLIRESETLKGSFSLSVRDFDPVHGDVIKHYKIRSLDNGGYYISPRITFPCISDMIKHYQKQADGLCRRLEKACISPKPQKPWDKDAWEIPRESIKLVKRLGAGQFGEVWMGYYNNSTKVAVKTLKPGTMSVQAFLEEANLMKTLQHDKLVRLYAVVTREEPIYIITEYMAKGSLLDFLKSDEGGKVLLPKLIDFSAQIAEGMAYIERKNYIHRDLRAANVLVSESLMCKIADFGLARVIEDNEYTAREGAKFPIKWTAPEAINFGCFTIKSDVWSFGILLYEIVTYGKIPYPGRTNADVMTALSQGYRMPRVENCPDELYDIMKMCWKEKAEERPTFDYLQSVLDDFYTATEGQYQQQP

[6] = target: Serine/threonine-protein kinase PAK 5 (Homo sapiens) (UniProt Q9P286)
Sequence of Serine/threonine-protein kinase PAK 5 (Homo sapiens) (Q9P286 whole entry, looked up): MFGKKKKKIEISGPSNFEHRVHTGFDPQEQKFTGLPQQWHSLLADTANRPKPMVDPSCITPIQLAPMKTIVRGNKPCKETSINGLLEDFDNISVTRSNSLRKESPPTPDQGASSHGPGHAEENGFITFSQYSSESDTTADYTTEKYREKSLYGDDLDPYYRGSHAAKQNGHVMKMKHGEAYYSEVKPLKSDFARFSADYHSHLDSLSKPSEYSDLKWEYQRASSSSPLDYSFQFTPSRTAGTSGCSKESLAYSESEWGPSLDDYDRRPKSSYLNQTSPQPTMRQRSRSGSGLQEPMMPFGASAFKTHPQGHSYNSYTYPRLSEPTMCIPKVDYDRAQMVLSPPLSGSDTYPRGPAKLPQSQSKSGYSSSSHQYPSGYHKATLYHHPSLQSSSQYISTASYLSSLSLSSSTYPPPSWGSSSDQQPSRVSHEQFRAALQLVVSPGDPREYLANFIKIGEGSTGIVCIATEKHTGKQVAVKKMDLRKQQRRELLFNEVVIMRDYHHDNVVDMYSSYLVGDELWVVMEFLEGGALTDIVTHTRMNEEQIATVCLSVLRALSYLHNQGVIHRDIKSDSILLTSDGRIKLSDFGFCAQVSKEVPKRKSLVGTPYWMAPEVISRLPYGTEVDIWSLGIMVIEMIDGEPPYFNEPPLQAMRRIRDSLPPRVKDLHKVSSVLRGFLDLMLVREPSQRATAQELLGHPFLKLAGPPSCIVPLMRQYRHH

[7] = target: T4, cGMP-dependent protein kinase 1 (Homo sapiens) (UniProt Q13976)
T4 sequence (whole entry): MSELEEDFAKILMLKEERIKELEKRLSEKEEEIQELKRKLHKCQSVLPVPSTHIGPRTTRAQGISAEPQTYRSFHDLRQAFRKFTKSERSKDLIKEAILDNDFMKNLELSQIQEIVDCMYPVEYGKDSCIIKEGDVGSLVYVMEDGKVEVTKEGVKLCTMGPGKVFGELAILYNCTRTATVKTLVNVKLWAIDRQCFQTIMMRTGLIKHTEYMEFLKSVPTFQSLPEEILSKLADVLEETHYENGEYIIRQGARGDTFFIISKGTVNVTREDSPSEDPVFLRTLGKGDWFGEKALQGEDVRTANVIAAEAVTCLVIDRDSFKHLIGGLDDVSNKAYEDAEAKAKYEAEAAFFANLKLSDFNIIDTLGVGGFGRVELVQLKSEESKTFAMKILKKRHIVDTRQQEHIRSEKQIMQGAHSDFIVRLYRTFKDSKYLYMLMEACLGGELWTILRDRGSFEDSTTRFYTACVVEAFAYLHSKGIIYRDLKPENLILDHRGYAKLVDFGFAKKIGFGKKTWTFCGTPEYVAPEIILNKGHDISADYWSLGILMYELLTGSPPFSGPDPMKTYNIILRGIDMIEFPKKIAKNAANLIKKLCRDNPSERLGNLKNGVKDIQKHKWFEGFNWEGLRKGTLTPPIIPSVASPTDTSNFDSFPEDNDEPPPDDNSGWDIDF

[8] = target: Serine/threonine-protein kinase 16 (Homo sapiens) (UniProt O75716)
Sequence of Serine/threonine-protein kinase 16 (Homo sapiens) (O75716 whole entry): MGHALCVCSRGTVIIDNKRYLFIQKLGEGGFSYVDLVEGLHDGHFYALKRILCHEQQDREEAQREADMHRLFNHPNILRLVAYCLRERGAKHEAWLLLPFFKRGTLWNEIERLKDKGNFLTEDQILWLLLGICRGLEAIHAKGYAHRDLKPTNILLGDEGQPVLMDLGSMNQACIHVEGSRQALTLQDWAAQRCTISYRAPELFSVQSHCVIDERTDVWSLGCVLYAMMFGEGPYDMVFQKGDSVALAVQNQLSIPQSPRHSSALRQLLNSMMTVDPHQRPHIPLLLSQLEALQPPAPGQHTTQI

[9] = target: Wee1-like protein kinase (Homo sapiens) (UniProt P30291)
Sequence of Wee1-like protein kinase (Homo sapiens) (P30291 whole entry, looked up): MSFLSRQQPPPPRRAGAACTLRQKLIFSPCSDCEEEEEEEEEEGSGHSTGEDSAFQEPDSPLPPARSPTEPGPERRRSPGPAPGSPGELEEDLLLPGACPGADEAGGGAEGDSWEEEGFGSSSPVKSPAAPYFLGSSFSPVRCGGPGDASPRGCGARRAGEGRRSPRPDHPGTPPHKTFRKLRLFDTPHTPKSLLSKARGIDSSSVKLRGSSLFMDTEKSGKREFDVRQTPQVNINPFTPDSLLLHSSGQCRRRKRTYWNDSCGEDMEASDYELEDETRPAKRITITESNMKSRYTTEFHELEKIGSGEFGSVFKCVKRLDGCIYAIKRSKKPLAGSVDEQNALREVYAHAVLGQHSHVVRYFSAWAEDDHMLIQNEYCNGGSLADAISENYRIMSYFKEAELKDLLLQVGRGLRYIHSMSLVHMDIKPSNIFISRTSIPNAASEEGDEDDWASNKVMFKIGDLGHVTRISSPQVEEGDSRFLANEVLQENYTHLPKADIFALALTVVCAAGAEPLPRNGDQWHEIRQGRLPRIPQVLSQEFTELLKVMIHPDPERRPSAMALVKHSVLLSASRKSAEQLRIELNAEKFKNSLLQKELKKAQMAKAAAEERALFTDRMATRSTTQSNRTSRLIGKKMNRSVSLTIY

Measured: % residual kinase activity

CN1CCN(c2cnc3c(C4CCN(C(=O)c5ccc(OC(F)(F)F)cc5N)CC4)ncnc3c2)CC1 [BAY-885]
inactive: [1] 98% | [2] 95% | [3] 113% | [4] 105% | [5] 100% | [6] 115% | [7] 115% | [8] 99% | [9] 108%
